The record followed here is US9877981B2, “NAD biosynthesis and precursors for the treatment and prevention of cancer and proliferation” (President and Fellows of Harvard College, priority 2012, dated 2018).

Format in all cases: cell-based, mouse
Assay [1] deals with PGC-1α/β KO myotubes. The experiment in a line: qPCR of ETC genes in PGC-1α/β KO myotubes. The settings on record: for expression of nuclear- and mitochondrial-encoded genes: EX-527 48 h. The method, then: (§1) Primary myoblasts cells were isolated from WT, SIRT1 KO (Price et al., 2012) and PGC-1α/β KO (Zechner et al., 2010) mice as previously described (Price et al., 2012). WT and PGC-1α/β KO primary myoblasts were plated and allowed to differentiate into myotubes by replacing the media with low glucose DMEM supplemented with 2% horse serum (Sigma-Aldrich) for 4 days. After the differentiation the cells were infected with empty vector or flag-SIRT1 adenovirus as described before (Gerhart-Hines et al., 2007). Media was replaced with fresh DMEM supplemented with 2% horse serum (Sigma-Aldrich) for an additional 48 hr and, after that the cells were harvested for the different assays as described. To investigate the role of HIF-1α in genome asynchrony, PGC-1α/β KO primary myotubes were treated for 12 hours with 1 mM DMOG (Sigma) or 10 μM DFO (Sigma), 24 h after infection with empty vector of flag-SIRT1 adenovirus or after 12 h treatment with 500 mM NMN (Sigma).
(§2) RNA from skeletal muscle tissue and C2C12 cells were extracted with RNeasy mini kit (Qiagen) according to the instructions and quantified using the NanoDrop 1000 spectrophotometer (Thermo Scientific). cDNA was synthesized with the iSCRIP cDNA synthesis kit (BioRad) using 600 ng of RNA. Quantitative RT-PCR reactions were performed using 1 μM of primers and LightCycler® 480 SYBR Green Master (Roche) on an LightCycler® 480 detection system (Roche). Calculations were performed by a comparative method (2-ΔCT) using 18S as an internal control. For mtDNA analysis, total DNA was extracted with DNeasy blood and tissue kit (Qiagen). mtDNA was amplified using primers specific for the mitochondrial cytochrome c oxidase subunit 2 (COX2) gene and normalized to genomic DNA by amplification of the ribosomal protein s18 (rps18) nuclear gene. Primers were designed using the IDT software (IDT) and the primer sequences can be found in Table 1.

Assay [2] relates to C2C12 myoblasts. The experiment in a line: mtDNA content and ETC gene expression in C2C12 myoblasts. The settings on record: C2C12 cells; 10 μM EX-527 for 12 h. The method, then:
C2C12 cell line (ATCC) was cultured in low glucose Dulbecco's modified eagle medium (DMEM) (Invitrogen) supplemented with 10% FBS (Invitrogen) and a mix of antibiotic and antimycotic (Invitrogen). To inhibit SIRT1, cells were treated the vehicle (0.001% DMSO) or 10 μM EX-527 (Tocris) for 12 h. C2C12 myoblasts were infected with an empty or SIRT1 adenovirus as described before (Gerhart-Hines et al., 2007) and the media was replaced with fresh DMEM for additional 48 h, after that the cells were treated as described before. To test the effects of hypoxia and HIFα stabilization in genome asyncrony, C2C12 myoblasts were exposed to 1% oxygen for 16 h or treated with the vehicle (0.001% DMSO) or DMOG (Cayman) for the same period of time.
as §2

Assay [3] relates to HIF-1α. Kind of assay: Immunoblot of HIF-1α in primary WT myoblasts. The settings on record: 10 mM lactate 24 h. The method, then:
as §1, with “To investigate the role of HIF-1α in genome asynchrony, PGC-1α/β KO primary myotubes were treated for 12 hours with 1 mM DMOG (Sigma) or 10 μM DFO (Sigma), 24 h after infection with empty vector of flag-SIRT1 adenovirus or after 12 h treatment with 500 mM NMN (Sigma).” left out
Protein extracts from tissue or C2C12 cells were obtained by lysis in ice-cold lysis buffer (150 mM NaCl, 10 mM Tris HCl (pH 7.4), 1 mM EDTA, 1 mM EGTA, 1% Triton X-100, 0.5% NP-40) supplemented with a cocktail of protease and phosphatase inhibitors (Roche). Protein content was determined by the Bradford protein assay (Biorad), and 50 μg proteins were run on SDS-PAGE under reducing conditions. […] The immunostaining was detected using horseradish peroxidase-conjugated anti-rabbit or anti-mouse immunoglobulin for 1 h at room temperature.
For orientation: Immunoblotting shows a protein as a band on a membrane.

The test system of assay [4] is NAD+/NADH. Kind of assay: NAD+/NADH ratio in primary myoblasts treated with pyruvate or lactate. The settings on record: primary WT myoblasts; 10 mM lactate 24 h. The method, then: as §1

Take `CC(=O)N(O)CCCCCNC(=O)CCC(=O)N(O)CCCCCNC(=O)CCC(=O)N(O)CCCCCN` [DFO, desferrioxamine]: the “effect on NMN-induced expression of mitochondrially-encoded ETC genes” value in assay [1] (PGC-1α/β KO myotubes, NMN plus 1 mM DMOG or 10 μM DFO, 12 hours) is recorded as “completely abolished”. Besides, in assay [1] (PGC-1α/β knockout myotubes with SIRT1 adenovirus, 1 mM DMOG or 10 μM DFO), the “effect on induction of mitochondrial ETC genes by SIRT1 overexpression” value was “completely blocked”.

Regarding `NC(=O)C1CCCc2c1[nH]c1ccc(Cl)cc21` (stereo not shown) [EX-527], the “expression of nuclear- and mitochondrial-encoded genes” value in assay [1] (PGC-1α/β KO myotubes reconstituted with PGC-1α T177A/S538A mutant) is “only the mitochondrial-encoded genes decreased”; in assay [1] (PGC-1α/β KO myotubes reconstituted with WT PGC-1α) it was “decreased both nuclear- and mitochondrial-encoded genes”. Further, the genome asynchrony result in assay [2] was “Genome asynchrony was induced”.

Turning to `CC(O)C(=O)O` (stereo not shown) [lactate], in assay [3], the HIF-1α protein stabilization entry was “induces HIF-1α protein stabilization”. Besides, in assay [4], the “NAD+/NADH ratio” value was “decreasing NAD^+/NADH ratio”.
